The record followed here is ChEMBL document CHEMBL1137626, “Identifying common metalloprotease inhibitors by protein fold types using Fourier transform mass spectrometry” (Bioorg Med Chem Lett, 2007).

The nature of this assay: Inhibition of thermolysin by enzcheck protease assay.

Broadly, the IC50 is the concentration that gives 50% inhibition. A higher IC50 goes with a need for much substance. In general, Ki refers to a dissociation constant, usually derived from enzyme kinetics or from competition with a known ligand.

In turn, `CCCCC[C@H](CC(=O)NO)C(=O)N[C@H](C(=O)N1CCC[C@H]1CO)C(C)C` [ACTINONIN] displayed an IC50 of 18.3 µM and an inhibitory constant (Ki) of 4.88 µM.

`CC(C)C[C@H](NP(=O)(O)O[C@@H]1O[C@@H](C)[C@H](O)[C@@H](O)[C@H]1O)C(=O)N[C@@H](Cc1c[nH]c2ccccc12)C(=O)O` [PHOSPHORAMIDON] yielded an IC50 of 13.8 µM and a Ki of 6.98 µM.
